{"source": "patent US10238670B2", "about": "“9-aminomethyl minocycline compounds and methods of use thereof in urinary tract infection (UTI) treatment” (Paratek Pharmaceuticals, Inc., priority 2016, dated 2019)", "assay": "Phase 1b study in female adults with cystitis, plasma PK", "assay_type": "in vivo, human", "conditions": "for Cmax / AUC(0-t) / Tmax / AUC(0-inf) / half-life / concentration at 5 day: plasma", "method": "According to the study design, a randomized (1:1:1), open-label, parallel designed Phase 1b study comparing 3 dosing regimens of Compound 1 (9-[(2,2-dimethyl-propyl amino)-methyl-minocycline) in the treatment of female adults with cystitis was conducted. About 31 female patients with uncomplicated urinary tract infection (cystitis) who met inclusion and exclusion criteria were enrolled at 2-4 U.S. treatment centers. All enrolled subjects participated in the study for approximately 5-6 weeks. Following Screening of up to 48 hrs, eligible subjects were randomly assigned to receive one of 3 dosing regimens of Compound 1 treatment as shown below. Subjects in all treatment groups were domiciled for a 5-day treatment period. Details of the study are further described below.\nSubjects were randomized (1:1:1) to one of the following treatment arms: • 1. Group 1: IV load, p.o. daily (200 mg Compound 1 IV every 24 hours (q24h) for 1 dose, followed by 300 mg p.o. q24h for a total of 5 days); • 2. Group 2: p.o. load, p.o. daily (300 mg Compound 1 p.o. every 12 hours (q12h) for 2 doses, followed by 300 mg p.o. q24h for a total of 5 days); • 3. Group 3: high p.o. load, high p.o. daily (450 mg Compound 1 p.o. q12h for 2 doses, followed by 450 mg p.o. q24h for a total of 5 days).\nBlood samples were collected and analyzed for Compound 1 concentration at the following times. Pre-dose blood PK evaluations were based on blood samples collected within 10 min of each start (e.g., t=0 h dose for Day 1, t=24 h dose for Day 2, etc.). • Day 1: Pre-dose, and 0.75, 1, 2, 3, 4, 6, 8 and 12 hours after the t=0 h dose (12 h sample before the t=12 h dose for Groups 2 and 3); • Day 2: prior to the t=24 h dose; • Day 3: prior to the t=48 h dose; • Day 4: prior to the t=72 h dose; • Day 5: Pre-dose, and 0.5, 1, 2, 3, 4, 6, 8 and 12 hours after the t=96 h dose • Day 6: at t=120 h (24 hours after the t=96 h dose on Day 5)\nFollowing the final oral doses on Day 5 the Compound 1 plasma concentration-time data for Groups 1, 2 and 3 were used to determine Cmax, Tmax, AUC24h, AUCt. Trough plasma concentrations (Ctrough) following each dose (Days 2 to 6) were also determined.\nBlood samples for PK are collected at the time points specified below. • Day 1: Predose, and 0.75, 1, 2, 3, 4, 6, 8 and 12 hours after the t=0 h dose (12 h sample before the t=12 h dose for Groups 2 and 3); • Day 2: prior to the t=24 h dose; • Day 3: prior to the t=48 h dose; • Day 4: prior to the t=72 h dose; • Day 5: Predose, and 0.5, 1, 2, 3, 4, 6, 8 and 12 hours after the t=96 h dose • Day 6: at t=120 h (24 hours after the t=96 h dose on Day 5)\nBlood was collected either by fresh venipuncture or via a cannula used solely for that purpose. The dates and times for all doses of test article and PK sample collections were recorded. For intravenously administered doses of test article, the start and stop times for each infusion were recorded. Immediately after the sample was collected, the tube was gently inverted 5 to 8 times to thoroughly mix the anticoagulant and then placed upright in a cryoblock or test tube rack surrounded by ice until centrifugation. Samples were centrifuged at 1500×g for 10 minutes at approximately 4° C. within 30 minutes of collection. The resultant plasma was divided into 2 equal aliquots, placed in individual cryovials, and immediately frozen at −20° C. or colder within 1 hour of collection. The samples were kept frozen at −20° C. or colder pending shipment to the bioanalytical laboratory.\nThe Compound 1 plasma concentration data was listed and summarized by time point and treatment group. The following PK parameters were estimated from the Compound 1 plasma concentration-time data: […]", "key": {"[1]": {"conditions": "Day 1, 300 mg po (n = 10), mean"}, "[2]": {"conditions": "Day 5, 300 mg po (n = 10), mean"}}, "note": "Where two headings read alike, the source gives them in different places.", "data": [{"molecule": "CN(C)c1cc(CNCC(C)(C)C)c(O)c2c1C[C@H]1C[C@H]3[C@H](N(C)C)C(O)=C(C(N)=O)C(=O)[C@@]3(O)C(O)=C1C2=O", "note": "[Compound 1, 9-[(2,2-dimethyl-propylamino)-methyl]-minocycline]", "values": [{"measurement": "AUC0-12", "setting": "[1]", "result": 6260, "unit": "ng·h/mL"}, {"measurement": "Cmax", "setting": "[1]", "result": 880, "unit": "ng/mL"}, {"measurement": "Cmin", "setting": "Day 5, 200 mg IV, 300 mg po (n = 11), mean", "result": 290, "unit": "ng/mL"}, {"measurement": "AUC0-24", "setting": "[2]", "result": 13500, "unit": "ng·h/mL"}, {"measurement": "Cmin", "setting": "[2]", "result": 320, "unit": "ng/mL"}, {"measurement": "Cmin", "setting": "Day 5, 450 mg po (n = 10), mean", "result": 480, "unit": "ng/mL"}, {"measurement": "AUC(0-t)", "setting": "female, human, intravenous, 200 mg, Day 1, 200 mg IV, 300 mg po (n = 11), mean, read-out: AUC0-24", "result": 16000, "unit": "ng·h/mL"}, {"measurement": "Tmax", "setting": "female, human, intravenous, 200 mg, Day 1, 200 mg IV, 300 mg po (n = 11), median, read-out: tmax", "result": 0.75, "unit": "h"}, {"measurement": "Cmax", "setting": "female, human, intravenous, 200 mg, Day 1, 200 mg IV, 300 mg po (n = 11), mean, read-out: Cmax", "result": 2160, "unit": "ng/mL"}, {"measurement": "AUC(0-t)", "setting": "female, human, intravenous, 200 mg, Day 1, IV_PO300, read-out: AUC(0-24 hrs), Geo. Mean", "result": 15600, "unit": "ng·h/mL"}, {"measurement": "AUC(0-t)", "setting": "female, human, intravenous, 200 mg, Day 1, IV_PO300, read-out: AUC(0-24 hrs), Mean", "result": 16000, "unit": "ng·h/mL"}, {"measurement": "AUC(0-t)", "setting": "female, human, intravenous, 200 mg, Day 1, IV_PO300, read-out: AUC(0-24 hrs), Median", "result": 14800, "unit": "ng·h/mL"}, {"measurement": "AUC(0-inf)", "setting": "female, human, intravenous, 200 mg, Day 1, IV_PO300, read-out: AUC(0-inf), Geo. Mean", "result": 19700, "unit": "ng·h/mL"}, {"measurement": "AUC(0-inf)", "setting": "female, human, intravenous, 200 mg, Day 1, IV_PO300, read-out: AUC(0-inf), Mean", "result": 19900, "unit": "ng·h/mL"}, {"measurement": "AUC(0-inf)", "setting": "female, human, intravenous, 200 mg, Day 1, IV_PO300, read-out: AUC(0-inf), Median", "result": 19300, "unit": "ng·h/mL"}, {"measurement": "Cmax", "setting": "female, human, intravenous, 200 mg, Day 1, IV_PO300, read-out: Cmax, Geo. Mean", "result": 1960, "unit": "ng/mL"}, {"measurement": "Cmax", "setting": "female, human, intravenous, 200 mg, Day 1, IV_PO300, read-out: Cmax, Mean", "result": 2160, "unit": "ng/mL"}, {"measurement": "Cmax", "setting": "female, human, intravenous, 200 mg, Day 1, IV_PO300, read-out: Cmax, Median", "result": 1850, "unit": "ng/mL"}, {"measurement": "Tmax", "setting": "female, human, intravenous, 200 mg, Day 1, IV_PO300, read-out: Tmax, Geo. Mean", "result": 0.869, "unit": "h"}, {"measurement": "Tmax", "setting": "female, human, intravenous, 200 mg, Day 1, IV_PO300, read-out: Tmax, Mean", "result": 0.897, "unit": "h"}, {"measurement": "Tmax", "setting": "female, human, intravenous, 200 mg, Day 1, IV_PO300, read-out: Tmax, Median", "result": 0.75, "unit": "h"}, {"measurement": "half-life", "setting": "female, human, intravenous, 200 mg, Day 1, IV_PO300, read-out: T½, Geo. Mean (converted)", "result": 11.3, "unit": "h"}, {"measurement": "half-life", "setting": "female, human, intravenous, 200 mg, Day 1, IV_PO300, read-out: T½, Mean (converted)", "result": 11.4, "unit": "h"}, {"measurement": "half-life", "setting": "female, human, intravenous, 200 mg, Day 1, IV_PO300, read-out: T½, Median (converted)", "result": 11.5, "unit": "h"}, {"measurement": "AUC(0-t)", "setting": "female, human, oral, 300 mg, Day 5, 200 mg IV, 300 mg po (n = 11), mean, read-out: AUC0-24", "result": 13200, "unit": "ng·h/mL"}, {"measurement": "Cmax", "setting": "female, human, oral, 300 mg, Day 5, 200 mg IV, 300 mg po (n = 11), mean, read-out: Cmax", "result": 1120, "unit": "ng/mL"}, {"measurement": "Tmax", "setting": "female, human, oral, 300 mg, Day 5, 200 mg IV, 300 mg po (n = 11), median, read-out: tmax", "result": 3, "unit": "h"}, {"measurement": "AUC(0-t)", "setting": "female, human, oral, 300 mg, Day 1, PO300, read-out: AUC(0-12 hrs), Geo. Mean", "result": 6150, "unit": "ng·h/mL"}, {"measurement": "AUC(0-t)", "setting": "female, human, oral, 300 mg, Day 1, PO300, read-out: AUC(0-12 hrs), Mean", "result": 6260, "unit": "ng·h/mL"}, {"measurement": "AUC(0-t)", "setting": "female, human, oral, 300 mg, Day 1, PO300, read-out: AUC(0-12 hrs), Median", "result": 6520, "unit": "ng·h/mL"}, {"measurement": "Cmax", "setting": "female, human, oral, 300 mg, Day 1, PO300, read-out: Cmax, Geo. Mean", "result": 849, "unit": "ng/mL"}, {"measurement": "Cmax", "setting": "female, human, oral, 300 mg, Day 1, PO300, read-out: Cmax, Mean", "result": 877, "unit": "ng/mL"}, {"measurement": "Cmax", "setting": "female, human, oral, 300 mg, Day 1, PO300, read-out: Cmax, Median", "result": 916, "unit": "ng/mL"}, {"measurement": "Tmax", "setting": "female, human, oral, 300 mg, Day 1, PO300, read-out: Tmax, Geo. Mean", "result": 2.96, "unit": "h"}, {"measurement": "Tmax", "setting": "female, human, oral, 300 mg, Day 1, PO300, read-out: Tmax, Mean", "result": 2.99, "unit": "h"}, {"measurement": "Tmax", "setting": "female, human, oral, 300 mg, Day 1, PO300, read-out: Tmax, Median", "result": 3, "unit": "h"}, {"measurement": "AUC(0-t)", "setting": "female, human, oral, 300 mg, Day 5, IV_PO300, read-out: AUC(0-24 hrs), Geo. Mean", "result": 9550, "unit": "ng·h/mL"}, {"measurement": "AUC(0-t)", "setting": "female, human, oral, 300 mg, Day 5, IV_PO300, read-out: AUC(0-24 hrs), Mean", "result": 13200, "unit": "ng·h/mL"}, {"measurement": "AUC(0-t)", "setting": "female, human, oral, 300 mg, Day 5, IV_PO300, read-out: AUC(0-24 hrs), Median", "result": 15800, "unit": "ng·h/mL"}, {"measurement": "Cmax", "setting": "female, human, oral, 300 mg, Day 5, IV_PO300, read-out: Cmax, Geo. Mean", "result": 808, "unit": "ng/mL"}, {"measurement": "Cmax", "setting": "female, human, oral, 300 mg, Day 5, IV_PO300, read-out: Cmax, Mean", "result": 1120, "unit": "ng/mL"}, {"measurement": "Cmax", "setting": "female, human, oral, 300 mg, Day 5, IV_PO300, read-out: Cmax, Median", "result": 1300, "unit": "ng/mL"}, {"measurement": "concentration at 5 day", "setting": "female, human, oral, 300 mg, Day 5, IV_PO300, read-out: Ctrough, Geo. Mean", "result": 214, "unit": "ng/mL"}, {"measurement": "concentration at 5 day", "setting": "female, human, oral, 300 mg, Day 5, IV_PO300, read-out: Ctrough, Mean", "result": 292, "unit": "ng/mL"}, {"measurement": "concentration at 5 day", "setting": "female, human, oral, 300 mg, Day 5, IV_PO300, read-out: Ctrough, Median", "result": 378, "unit": "ng/mL"}, {"measurement": "Tmax", "setting": "female, human, oral, 300 mg, Day 5, IV_PO300, read-out: Tmax, Geo. Mean", "result": 2.83, "unit": "h"}, {"measurement": "Tmax", "setting": "female, human, oral, 300 mg, Day 5, IV_PO300, read-out: Tmax, Mean", "result": 2.6, "unit": "h"}, {"measurement": "Tmax", "setting": "female, human, oral, 300 mg, Day 5, IV_PO300, read-out: Tmax, Median", "result": 3, "unit": "h"}, {"measurement": "half-life", "setting": "female, human, oral, 300 mg, Day 5, IV_PO300, read-out: T½, Geo. Mean (converted)", "result": 13.2, "unit": "h"}]}]}
